From ChEMBL document CHEMBL1201862, “PubChem BioAssay data set” (2004)
Active and inactive are the calls of the source.

Columns and labels:
[1] = biological target: Dual specificity tyrosine-phosphorylation-regulated kinase 1A (Rattus norvegicus, UniProt Q63470); type: biochemical, Homo sapiens
[2] = biological target: Heat shock protein HSP 90-alpha (Homo sapiens, UniProt P07900); type: functional, organism-based
[3] = biological target: Nuclear receptor subfamily 5 group A member 2 (Homo sapiens, UniProt O00482); type: functional, cell-based;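 note: HEK293T cells transfected with LRH-1 and a StAR promoter luciferase reporter; potency for inhibitors that lower LRH-1 driven reporter light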
Steroidogenic factor 1 = Steroidogenic factor 1 (Homo sapiens, UniProt Q13285); experiment: Counterscreen for inverse agonists of the liver receptor homolog-1 (LRH-1; NR5A2): Luminescence-based cell-based high throughput dose response assay to identify inverse agonists of the Steroidogenic Factor 1 Nuclear Receptor (SF1; NR5A1).; type: functional
[4] = StAR promoter reporter inhibition counter-screen, dose response, counter-screen for LRH-1 inverse agonist project, cell-based, luminescence, luciferase reporter (AID 651969); type: functional
[5] = biological target: 26S proteasome non-ATPase regulatory subunit 14 (Homo sapiens, UniProt O00487); experiment: inhibition of proteasome subunit RPN11 – biochemical, fluorescence polarization, uHTS hits, confirmation (AID 602368); type: functional
Prothrombin = Prothrombin (Bos taurus, UniProt P00735); experiment: thrombin inhibition, dose response, biochemical, fluorescence polarization, uHTS hits (AID 602369); type: functional
[6] = biological target: 72 kDa type IV collagenase (Homo sapiens, UniProt P08253); experiment: Dose Response validation of uHTS RPN11 inhibitor hits using a MMP-2 Fluorescence assay.; type: functional
[7] = biological target: T1, Type-1 angiotensin II receptor (Homo sapiens, UniProt P30556); experiment: AT1 receptor antagonists, dose response, selectivity assay for APJ receptor antagonist project, cell-based, uHTS hits (AID 463214); type: functional;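 note: antagonist potency against angiotensin II stimulated AT1 response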
T1 sequence (P30556 whole entry): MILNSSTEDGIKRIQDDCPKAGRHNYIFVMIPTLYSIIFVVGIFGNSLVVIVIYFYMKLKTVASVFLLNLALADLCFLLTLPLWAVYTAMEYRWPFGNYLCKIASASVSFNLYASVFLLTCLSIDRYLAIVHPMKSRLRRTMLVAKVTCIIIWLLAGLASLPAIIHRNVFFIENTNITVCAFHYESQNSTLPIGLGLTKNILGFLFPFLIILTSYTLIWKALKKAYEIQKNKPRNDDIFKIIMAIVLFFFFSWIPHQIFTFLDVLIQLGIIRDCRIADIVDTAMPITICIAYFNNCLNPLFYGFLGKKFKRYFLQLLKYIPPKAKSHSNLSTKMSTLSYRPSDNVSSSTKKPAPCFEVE

Beta-galactosidase = Beta-galactosidase (Escherichia coli, UniProt Q8VNN2); experiment: PubChem AID 485352; type: functional
[8] = tested on: Streptococcus sp. 'group A'; experiment: growth inhibition of control SK(-) GAS strain, dose response, counter-screen for streptokinase expression inhibitor project, luminescence, kanamycin, BacTiterGlo, confirmation (AID 1900); type: functional, organism-based
Streptococcus = experiment: Group A Streptococcus viability loss, dose response, counter-screen for streptokinase expression inhibitor project, luminescence, BacTiterGlo (AID 1915); type: functional, organism-based;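 note: potency for reduction of bacterial viability or growth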
[9] = biological target: T2, Probable nicotinate-nucleotide adenylyltransferase (Staphylococcus aureus (strain N315), UniProt P65502); type: functional, Staphylococcus aureus subsp. aureus N315; conditions: read-out: IC50_Mean;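 for IC50 Mean: confirmatory dose-response retesting of NadD inhibitor hits first found in an ultra-high-throughput screen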
[10] = biological target: T2, Probable nicotinate-nucleotide adenylyltransferase; type: functional, Staphylococcus aureus subsp. aureus N315
[11] = ARNT/TACC3 interaction disruptors, potency, confirmation, biochemical, AlphaScreen, cherry-picked samples (AID 651703); type: functional, Homo sapiens;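 note: His-tagged ARNT PAS-B domain paired with GST-TACC3 E629A dimer coactivator fragment; potency of inhibitors that break up the complex and lower AlphaScreen signal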

Chain of 26S proteasome non-ATPase regulatory subunit 14 (O00487 whole entry): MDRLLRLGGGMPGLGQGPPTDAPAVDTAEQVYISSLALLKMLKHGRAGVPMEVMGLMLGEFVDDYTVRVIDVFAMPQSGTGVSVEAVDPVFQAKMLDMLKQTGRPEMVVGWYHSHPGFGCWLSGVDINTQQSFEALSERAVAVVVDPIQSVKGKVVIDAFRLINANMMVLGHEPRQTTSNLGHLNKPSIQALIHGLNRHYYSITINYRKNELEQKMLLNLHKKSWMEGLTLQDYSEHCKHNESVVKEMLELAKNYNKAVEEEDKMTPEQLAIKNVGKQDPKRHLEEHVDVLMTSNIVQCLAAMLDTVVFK
Chain of Steroidogenic factor 1 (Q13285 whole entry): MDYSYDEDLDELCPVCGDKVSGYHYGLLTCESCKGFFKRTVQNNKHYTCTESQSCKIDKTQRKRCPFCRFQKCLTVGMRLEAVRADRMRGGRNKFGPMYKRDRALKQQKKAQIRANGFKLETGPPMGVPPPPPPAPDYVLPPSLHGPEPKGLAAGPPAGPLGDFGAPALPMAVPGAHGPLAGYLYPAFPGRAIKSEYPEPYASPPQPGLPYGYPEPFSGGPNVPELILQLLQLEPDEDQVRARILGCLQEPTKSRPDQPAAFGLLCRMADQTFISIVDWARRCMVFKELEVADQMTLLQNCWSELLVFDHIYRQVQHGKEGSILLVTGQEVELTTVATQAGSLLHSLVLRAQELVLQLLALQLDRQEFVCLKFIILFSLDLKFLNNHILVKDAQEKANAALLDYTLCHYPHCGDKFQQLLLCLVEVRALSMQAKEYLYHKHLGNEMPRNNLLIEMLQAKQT
Chain of 72 kDa type IV collagenase (P08253 whole entry): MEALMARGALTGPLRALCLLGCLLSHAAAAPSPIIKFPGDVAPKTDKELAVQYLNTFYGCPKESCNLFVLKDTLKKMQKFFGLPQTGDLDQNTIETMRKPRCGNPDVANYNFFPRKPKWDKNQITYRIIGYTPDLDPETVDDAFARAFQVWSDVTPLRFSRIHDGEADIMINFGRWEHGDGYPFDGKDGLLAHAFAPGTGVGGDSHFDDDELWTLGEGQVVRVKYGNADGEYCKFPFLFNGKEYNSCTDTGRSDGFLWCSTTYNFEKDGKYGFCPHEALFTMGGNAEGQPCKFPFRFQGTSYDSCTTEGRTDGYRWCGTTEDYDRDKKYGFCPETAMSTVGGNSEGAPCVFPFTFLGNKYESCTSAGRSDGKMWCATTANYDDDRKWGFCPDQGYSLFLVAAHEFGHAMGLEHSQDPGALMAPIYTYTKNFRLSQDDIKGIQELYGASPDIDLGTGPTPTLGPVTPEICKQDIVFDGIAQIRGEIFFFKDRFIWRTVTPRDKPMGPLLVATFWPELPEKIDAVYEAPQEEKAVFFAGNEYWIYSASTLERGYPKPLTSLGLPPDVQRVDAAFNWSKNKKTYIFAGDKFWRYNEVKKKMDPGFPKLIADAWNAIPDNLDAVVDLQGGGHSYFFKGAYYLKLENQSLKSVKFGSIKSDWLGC
Chain of Nuclear receptor subfamily 5 group A member 2 (O00482 whole entry): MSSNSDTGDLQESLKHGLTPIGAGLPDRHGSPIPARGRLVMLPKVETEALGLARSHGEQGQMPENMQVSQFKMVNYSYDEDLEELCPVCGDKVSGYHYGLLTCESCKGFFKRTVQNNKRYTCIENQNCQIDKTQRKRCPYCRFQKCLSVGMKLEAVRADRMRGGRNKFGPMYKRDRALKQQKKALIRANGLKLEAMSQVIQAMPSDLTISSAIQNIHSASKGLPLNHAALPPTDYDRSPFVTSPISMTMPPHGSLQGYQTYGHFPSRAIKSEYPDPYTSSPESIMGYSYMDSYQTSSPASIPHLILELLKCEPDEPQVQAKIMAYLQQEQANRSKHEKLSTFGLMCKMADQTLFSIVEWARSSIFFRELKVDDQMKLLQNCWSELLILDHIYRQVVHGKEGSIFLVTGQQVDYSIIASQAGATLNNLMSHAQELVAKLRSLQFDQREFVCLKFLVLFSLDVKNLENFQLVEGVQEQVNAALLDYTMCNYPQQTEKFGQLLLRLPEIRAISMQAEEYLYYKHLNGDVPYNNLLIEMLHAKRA
Chain of Beta-galactosidase (Q8VNN2 whole entry): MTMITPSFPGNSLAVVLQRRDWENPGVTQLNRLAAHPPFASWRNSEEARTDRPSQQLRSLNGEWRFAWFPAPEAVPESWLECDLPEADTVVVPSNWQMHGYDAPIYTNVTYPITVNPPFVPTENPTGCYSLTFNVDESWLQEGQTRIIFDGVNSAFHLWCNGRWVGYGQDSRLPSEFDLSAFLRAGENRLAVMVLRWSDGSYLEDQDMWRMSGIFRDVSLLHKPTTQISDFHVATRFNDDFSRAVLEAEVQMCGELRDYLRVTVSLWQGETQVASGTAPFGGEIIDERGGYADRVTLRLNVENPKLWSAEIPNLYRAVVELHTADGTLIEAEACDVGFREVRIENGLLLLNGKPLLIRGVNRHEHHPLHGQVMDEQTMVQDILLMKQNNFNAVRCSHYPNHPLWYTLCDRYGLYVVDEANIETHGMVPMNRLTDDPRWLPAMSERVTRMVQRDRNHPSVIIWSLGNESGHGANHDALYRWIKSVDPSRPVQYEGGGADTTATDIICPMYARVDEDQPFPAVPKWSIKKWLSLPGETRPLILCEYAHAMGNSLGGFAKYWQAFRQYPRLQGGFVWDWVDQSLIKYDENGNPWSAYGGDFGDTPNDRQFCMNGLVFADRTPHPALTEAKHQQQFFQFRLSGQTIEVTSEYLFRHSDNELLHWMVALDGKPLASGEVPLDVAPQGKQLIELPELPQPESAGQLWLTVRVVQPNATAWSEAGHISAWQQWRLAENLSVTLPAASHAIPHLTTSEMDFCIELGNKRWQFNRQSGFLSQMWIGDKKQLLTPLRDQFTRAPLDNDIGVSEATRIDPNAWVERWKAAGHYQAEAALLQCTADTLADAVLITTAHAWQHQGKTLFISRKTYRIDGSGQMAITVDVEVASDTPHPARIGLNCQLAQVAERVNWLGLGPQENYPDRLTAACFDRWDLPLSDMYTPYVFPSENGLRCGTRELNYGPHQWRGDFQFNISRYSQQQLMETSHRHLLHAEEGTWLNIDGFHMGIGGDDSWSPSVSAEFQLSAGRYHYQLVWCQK
T2 sequence (P65502 whole entry): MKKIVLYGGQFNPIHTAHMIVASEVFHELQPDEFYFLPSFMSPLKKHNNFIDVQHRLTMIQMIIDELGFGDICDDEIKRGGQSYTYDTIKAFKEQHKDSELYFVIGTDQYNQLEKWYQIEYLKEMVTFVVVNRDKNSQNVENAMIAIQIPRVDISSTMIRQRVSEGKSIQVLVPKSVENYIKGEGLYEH

## N=C(N)NC(=O)c1nc(Cl)c(N)nc1N
[1]
  AC50: 9.17 µM (active)

## Cc1cc(Cl)ccc1C(=O)C1CCCN(C(=O)c2cncs2)C1 (stereo not drawn)
[2]
  AC50: 3.92 µM (active)

## CCCc1nnc(SCC(=O)Nc2ccc(C(=O)OCC)cc2)o1
[3]
  IC50: 35.9 µM (inactive)
Steroidogenic factor 1
  IC50: 1.61 µM (active)
[4]
  IC50: 35.9 µM (inactive)

## COc1ccc(NN=C2C(=O)CC(C)(C)CC2=O)c(OC)c1
[5]
  IC50: 27 µM (active)
Prothrombin
  IC50: 27.3 µM (active)
[6]
  IC50: > 100 µM (inactive)

## CCc1ccccc1NC(=O)CSc1nnc([C@@H]2CCCN2C(=O)OC(C)(C)C)o1
[3]
  IC50: 12 µM (inactive)
Steroidogenic factor 1
  IC50: 1.86 µM (active)
[4]
  IC50: 35.9 µM (inactive)

## O=C(CCCNC(=O)c1ccc(Cl)cc1)OCc1cccc(Br)c1
[2]
  AC50: 5.23 µM (active)

## CCOc1ccc(CCNC(=O)c2nnn(CC(=O)Nc3ccc(C)cc3)c2N)cc1OCC
[5]
  IC50: 13.1 µM (active)
Prothrombin
  IC50: > 100 µM (inactive)
[6]
  IC50: > 100 µM (inactive)

## NC(=O)c1ccccc1NCC(=O)c1ccc(F)cc1
[7]
  IC50: 21.6 µM (not active)
Beta-galactosidase
  EC50: > 40 µM (inactive)

## Fc1ccc(NC(S)=Nc2ccc(Cl)cc2Cl)cc1
[7]
  IC50: > 40 µM (not active)
Beta-galactosidase
  EC50: > 40 µM (inactive)

## CC(=O)c1cccc(NC(=O)CCc2nc3sc4c(c3c(=O)[nH]2)CCCC4)c1
[5]
  IC50: 33.9 µM (active)
Prothrombin
  IC50: 35.5 µM (active)
[6]
  IC50: > 100 µM (inactive)

## Oc1cccc2ccc(/C=C/c3cccs3)nc12
[8]
  EC50: 1.92 µM (active)
Streptococcus
  EC50: 4.2 µM (active)
[7]
  IC50: 10.3 µM (active)
Beta-galactosidase
  EC50: > 40 µM (inactive)

## COc1ccc(/C=C2\SC(=S)N(C(C)C(=O)NC3C=CS(=O)(=O)C3)C2=O)cc1 (stereo not drawn)
[1]
  AC50: 2.73 µM (active)

## CC1=C(C(=O)c2ccccc2)C(c2ccc(N3CCOCC3)cc2)NC(=O)N1 (stereo not drawn)
[5]
  IC50: 17.1 µM (active)
Prothrombin
  IC50: 15.5 µM (active)
[6]
  IC50: > 100 µM (inactive)

## N#CCSc1ccccc1NC(=O)CN1C(=O)C2CC=CCC2C1=O (stereo not drawn)
[3]
  IC50: 6.85 µM (active)
Steroidogenic factor 1
  IC50: 2.83 µM (active)
[4]
  IC50: 35.9 µM (inactive)

## Cc1ccc(Nc2nnc(SCC(O)=C(C#N)c3nc4ccccc4[nH]3)s2)c(C)c1
[9]
  IC50: 26.7 µM (active)
[10]
  IC50: 8.52 µM (active)

## O=C(N[C@H]1CC[C@H](CCn2cc(-c3ccccn3)nn2)O[C@H]1CO)c1ccccc1
[11]
  AC50: 78.4 µM (active)

## C=CCn1c(=O)/c(=C2/Sc3cc(OC)ccc3N2C)s/c1=C1\C(=O)N(CC)C(=S)N1C
[7]
  IC50: > 40 µM (not active)
Beta-galactosidase
  EC50: > 40 µM (inactive)
